Results published in patent US4436751A, “Nitrobenzyl monates antibacterial compounds” (Beecham Group Limited, priority 1980, dated 1984).
In brackets after ≈: the same amount, converted by molar mass. Like-named read-outs stand apart in the source and are kept apart here.

How the values were obtained:
Format in all cases: cell-based
M. bovis RCTC 10131 = experiment: microbe, parasite or virus in culture; details: RCTC10131, 144 h
[1] = system: M. suipneumoniae NCTC 10110; experiment: Anti-mycoplasmal MIC in vitro, Friis broth agarose (Table 1); details: Mesomycoplasma hyopneumoniae, NCTC10110, 144 h
[2] = system: M. bovigenitalium ATOC 14173; experiment: as above; details: 144 h
E. coli ESS = experiment: Human bacteria MIC, nutrient agar with chocolated horse blood (Table 3); details: Escherichia coli; E. coli ESS; nutrient agar 5% chocolated horse blood, 18 hours 37° C.; read-out: MIC
Procedure: (§1) The values were determined by serial dilutions in nutrient agar with 5% chocolated horse blood after incubations for 18 hours at 37° C.

Strep. 641848-C = experiment: as above
Procedure: as §1

[3] = system: Neisseria catarrhalis 1502; experiment: as above
Procedure: as §1

M. suipneumoniae TAM 6N = experiment: Anti-mycoplasmal MIC in vitro, Friis broth agarose (Table 1); details: Mesomycoplasma hyopneumoniae, TAM6N, 144 h
[4] = system: M. suipneumoniae PW/C/210; experiment: as above; details: Mesomycoplasma hyopneumoniae, 144 h
S. dublin S7 = experiment: Veterinary bacteria MIC, Diagnostic Sensitivity Test Agar (Table 2); details: Salmonella enterica
Procedure: (§2) The values were determined using a two fold serial dilutions in Diagnostic Sensitivity Test Agar with an inoculum of 10^4 organisms and incubation for 18 hours at 37° C.

[5] = system: Erysipelothrix rhusiopathiae NCTC 8163; experiment: as above
Procedure: as §2

E. Coli E1 = experiment: as above; details: Escherichia coli
Procedure: as §2

Past. multocida PA2 = experiment: as above; details: Pasteurella multocida
Procedure: as §2

Past. haemolytica PA5 = experiment: as above; details: Mannheimia haemolytica; Past. haemolytica PA5; DST Agar, 10^4 organisms, 18 hours 37° C.; read-out: MIC
Procedure: as §2

[6] = system: Strep. suis (group D) SPS11; experiment: as above; details: Streptococcus suis
Procedure: as §2

Bord. bronchiseptica BO8 = experiment: as above; details: Bordetella bronchiseptica
Procedure: as §2

E. Coli NCTC 10418 = experiment: as above; details: Escherichia coli
Procedure: as §2

Strep. dylgalactiae SPD1 = experiment: as above; details: Strep. dylgalactiae SPD1; DST Agar, 10^4 organisms, 18 hours 37° C.; read-out: MIC
Procedure: as §2

Staph. aureus B4 = experiment: as above; details: Staphylococcus aureus; Staph. aureus B4; DST Agar, 10^4 organisms, 18 hours 37° C.; read-out: MIC
Procedure: as §2

Staph. aureus Oxford = experiment: as above; details: Staphylococcus aureus; Staph. aureus Oxford; DST Agar, 10^4 organisms, 18 hours 37° C.; read-out: MIC
Procedure: as §2

Bord. bronchiseptica BO9 = experiment: as above; details: Bordetella bronchiseptica; Bord. bronchiseptica BO9; DST Agar, 10^4 organisms, 18 hours 37° C.; read-out: MIC
Procedure: as §2

Past. multocida PA1 = experiment: as above; details: Pasteurella multocida
Procedure: as §2

Staph. aureus 152 = experiment: as above; details: Staphylococcus aureus; Staph. aureus 152; DST Agar, 10^4 organisms, 18 hours 37° C.; read-out: MIC
Procedure: as §2

Strep. agalactiae SPA1 = experiment: as above; details: Streptococcus agalactiae; Strep. agalactiae SPA1; DST Agar, 10^4 organisms, 18 hours 37° C.; read-out: MIC
Procedure: as §2

S. typhimurium S18 = experiment: as above; details: Salmonella enterica
Procedure: as §2

[7] = system: Corynebacterium pyogenes CY1; experiment: as above; details: Trueperella pyogenes
Procedure: as §2

Strep. uberis SPO1 = experiment: as above; details: Streptococcus uberis; Strep. uberis SPO1; DST Agar, 10^4 organisms, 18 hours 37° C.; read-out: MIC
Procedure: as §2

Strep. 2733-B = experiment: Human bacteria MIC, nutrient agar with chocolated horse blood (Table 3); details: Strep. 2733-B; nutrient agar 5% chocolated horse blood, 18 hours 37° C.; read-out: MIC
Procedure: as §1

[8] = Strep. 641848-C, nutrient agar 5% chocolated horse blood, 18 hours 37° C., read-out: MIC
[9] = S. dublin S7, DST Agar, 10^4 organisms, 18 hours 37° C., read-out: MIC
[10] = NCTC8163, Erysipelothrix rhusiopathiae NCTC 8163, DST Agar, 10^4 organisms, 18 hours 37° C., read-out: MIC
[11] = E. Coli E1, DST Agar, 10^4 organisms, 18 hours 37° C., read-out: MIC
[12] = Past. multocida PA2, DST Agar, 10^4 organisms, 18 hours 37° C., read-out: MIC
[13] = Strep. suis (group D) SPS11, DST Agar, 10^4 organisms, 18 hours 37° C., read-out: MIC
[14] = Bord. bronchiseptica BO8, DST Agar, 10^4 organisms, 18 hours 37° C., read-out: MIC
[15] = NCTC10418, E. Coli NCTC 10418, DST Agar, 10^4 organisms, 18 hours 37° C., read-out: MIC
[16] = Past. multocida PA1, DST Agar, 10^4 organisms, 18 hours 37° C., read-out: MIC
[17] = S. typhimurium S18, DST Agar, 10^4 organisms, 18 hours 37° C., read-out: MIC
[18] = Corynebacterium pyogenes CY1, DST Agar, 10^4 organisms, 18 hours 37° C., read-out: MIC

Compound: C/C(=C\C(=O)OC(C)c1cccc([N+](=O)[O-])c1)CC1OCC(CC2OC2C(C)C(C)O)C(O)C1O (stereo not drawn) [Example 3, 1-(m-nitrophenyl)ethyl monate A]
- MIC (M. bovis RCTC 10131): 0.025 µg/mL (≈ 0.0507 µM)
- MIC ([1]; M. suipneumoniae NCTC 10110, in vitro, 6 days 37° C., read-out: MIC): 0.25 µg/mL (≈ 0.507 µM)
- MIC [2]: 0.05 µg/mL (≈ 0.101 µM)
- MIC (E. coli ESS): 10 µg/mL (≈ 20.3 µM)
- MIC (Strep. 641848-C; [8]): 2.5 µg/mL (≈ 5.07 µM)
- MIC ([3]; Neisseria, 1502, 18 h): 1 µg/mL (≈ 2.03 µM)
- MIC (M. suipneumoniae TAM 6N; M. suipneumoniae TAM 6N, in vitro, 6 days 37° C., read-out: MIC): 0.25 µg/mL (≈ 0.507 µM)
- MIC ([4]; M. suipneumoniae PW/C/210, in vitro, 6 days 37° C., read-out: MIC): 0.1 µg/mL (≈ 0.203 µM)
- MIC (S. dublin S7; [9]): > 80 µg/mL
- MIC [5, 10]: 80 µg/mL (≈ 162 µM)
- MIC (E. Coli E1; [11]): > 80 µg/mL
- MIC (Past. multocida PA2; [12]): 2.5 µg/mL (≈ 5.07 µM)
- MIC (Past. haemolytica PA5): 40 µg/mL (≈ 81 µM)
- MIC [6, 13]: 40 µg/mL (≈ 81 µM)
- MIC (Bord. bronchiseptica BO8; [14]): > 80 µg/mL
- MIC (E. Coli NCTC 10418; [15]): > 80 µg/mL
- MIC (Strep. dylgalactiae SPD1): 1.25 µg/mL (≈ 2.53 µM)
- MIC (Staph. aureus B4): 2.5 µg/mL (≈ 5.07 µM)
- MIC (Staph. aureus Oxford): 2.5 µg/mL (≈ 5.07 µM)
- MIC (Bord. bronchiseptica BO9): 80 µg/mL (≈ 162 µM)
- MIC (Past. multocida PA1; [16]): 20 µg/mL (≈ 40.5 µM)
- MIC (Staph. aureus 152): 2.5 µg/mL (≈ 5.07 µM)
- MIC (Strep. agalactiae SPA1): 2.5 µg/mL (≈ 5.07 µM)
- MIC (S. typhimurium S18; [17]): > 80 µg/mL
- MIC [7, 18]: > 80 µg/mL
- MIC (Strep. uberis SPO1): 0.312 µg/mL (≈ 0.632 µM)

Compound: C/C(=C\C(=O)OCc1cccc([N+](=O)[O-])c1)CC1OCC(C/C=C/C(C)C(C)O)C(O)C1O (stereo not drawn) [Example 5, m-nitrobenzyl monate C]
- MIC (M. bovis RCTC 10131): 0.1 µg/mL (≈ 0.216 µM)
- MIC [1]: 0.25 µg/mL (≈ 0.539 µM)
- MIC [2]: 0.1 µg/mL (≈ 0.216 µM)
- MIC (E. coli ESS): 10 µg/mL (≈ 21.6 µM)
- MIC (Strep. 641848-C; 18 h): 5 µg/mL (≈ 10.8 µM)
- MIC ([3]; Neisseria catarrhalis 1502, nutrient agar 5% chocolated horse blood, 18 hours 37° C., read-out: MIC): 1 µg/mL (≈ 2.16 µM)
- MIC (M. suipneumoniae TAM 6N): 0.25 µg/mL (≈ 0.539 µM)
- MIC [4]: 0.1 µg/mL (≈ 0.216 µM)
- MIC (S. dublin S7; [9]): > 80 µg/mL
- MIC [5, 10]: > 80 µg/mL
- MIC (E. Coli E1; [11]): > 80 µg/mL
- MIC (Past. multocida PA2; [12]): 2.5 µg/mL (≈ 5.39 µM)
- MIC (Past. haemolytica PA5): 40 µg/mL (≈ 86.3 µM)
- MIC [6, 13]: 80 µg/mL (≈ 173 µM)
- MIC (Bord. bronchiseptica BO8; [14]): > 80 µg/mL
- MIC (E. Coli NCTC 10418; [15]): > 80 µg/mL
- MIC (Strep. dylgalactiae SPD1): 1.25 µg/mL (≈ 2.7 µM)
- MIC (Staph. aureus B4): 2.5 µg/mL (≈ 5.39 µM)
- MIC (Staph. aureus Oxford): 2.5 µg/mL (≈ 5.39 µM)
- MIC (Bord. bronchiseptica BO9): 40 µg/mL (≈ 86.3 µM)
- MIC (Past. multocida PA1; [16]): 10 µg/mL (≈ 21.6 µM)
- MIC (Staph. aureus 152): 2.5 µg/mL (≈ 5.39 µM)
- MIC (Strep. agalactiae SPA1): 2.5 µg/mL (≈ 5.39 µM)
- MIC (S. typhimurium S18; [17]): > 80 µg/mL
- MIC [7, 18]: > 80 µg/mL
- MIC (Strep. uberis SPO1): 0.625 µg/mL (≈ 1.35 µM)

Compound: C/C(=C\C(=O)OCc1ccc([N+](=O)[O-])cc1Cl)CC1OCC(CC2OC2C(C)C(C)O)C(O)C1O (stereo not drawn) [Example 11, 2-chloro-4-nitrobenzyl monate A]
- MIC (M. bovis RCTC 10131): 0.025 µg/mL (≈ 0.0486 µM)
- MIC [1]: 1 µg/mL (≈ 1.95 µM)
- MIC [2]: 0.05 µg/mL (≈ 0.0973 µM)
- MIC (Strep. 641848-C; [8]): 1 µg/mL (≈ 1.95 µM)
- MIC ([3]; Neisseria, 1502, 18 h): 0.5 µg/mL (≈ 0.973 µM)
- MIC (Strep. 2733-B): 1 µg/mL (≈ 1.95 µM)
- MIC (M. suipneumoniae TAM 6N): 2.5 µg/mL (≈ 4.86 µM)
- MIC [4]: 1 µg/mL (≈ 1.95 µM)
- MIC (S. dublin S7; S7, 18 h): 80 µg/mL (≈ 156 µM)
- MIC ([5]; Erysipelothrix rhusiopathiae, NCTC8163, 18 h): 5 µg/mL (≈ 9.73 µM)
- MIC (E. Coli E1; 18 h): 80 µg/mL (≈ 156 µM)
- MIC (Past. multocida PA2; PA2, 18 h): 0.156 µg/mL (≈ 0.304 µM)
- MIC (Past. haemolytica PA5): 2.5 µg/mL (≈ 4.86 µM)
- MIC ([6]; 18 h): 0.625 µg/mL (≈ 1.22 µM)
- MIC (Bord. bronchiseptica BO8; BO8, 18 h): 10 µg/mL (≈ 19.5 µM)
- MIC (E. Coli NCTC 10418; NCTC10418, 18 h): 80 µg/mL (≈ 156 µM)
- MIC (Strep. dylgalactiae SPD1): 0.156 µg/mL (≈ 0.304 µM)
- MIC (Staph. aureus B4): 0.156 µg/mL (≈ 0.304 µM)
- MIC (Staph. aureus Oxford): 0.07 µg/mL (≈ 0.136 µM)
- MIC (Bord. bronchiseptica BO9): 2.5 µg/mL (≈ 4.86 µM)
- MIC (Past. multocida PA1; PA1, 18 h): 0.625 µg/mL (≈ 1.22 µM)
- MIC (Staph. aureus 152): 0.07 µg/mL (≈ 0.136 µM)
- MIC (Strep. agalactiae SPA1): 0.156 µg/mL (≈ 0.304 µM)
- MIC (S. typhimurium S18; TYPHIMURIUM, 18 h): 80 µg/mL (≈ 156 µM)
- MIC ([7]; CY1, 18 h): > 80 µg/mL
- MIC (Strep. uberis SPO1): ≤ 0.019 µg/mL
